This note sets out measurements from US20260109699A1, “AZOLE DERIVATIVES AS SHP2 INHIBITORS” (IRBM S.P.A., priority 2022, published 2026).

Each structure is given as a SMILES string.

Experiment [1] concerns phospho-ERK1/2 (Thr202/Tyr204). Put plainly: Phospho-ERK cellular assay. It is filed as cell-based. The following applies: Homo sapiens; KYSE-520 cells, 2 h at 37° C, TR-FRET; read-out: pERK IC50. Here is the method:
ERK phosphorylation was detected using the “Advanced phospho-ERK1/2 (Thr202/Tyr204)” TR-FRET kit (Cisbio, Cat #64AERPEG/H), following the manufacturer reagents and instructions.
Briefly, 20.000/well KYSE-520 cells (DSMZ ACC 371) were plated in 6 μL RPMI-1640 (Invitrogen) growth medium, into 384 white low-volume high base TC microplates (Greiner). After an overnight incubation, cells were treated with DMSO serial diluted compounds and incubated for 2 h at 37° C. After incubation, 2 μL/well of 4×Lysis Buffer (Cisbio 64KL1FDF), were added and incubated with cells for 30 min on gentle shaking. Finally, lysates were added with 2 μL/well of Eu cryptate (donor) and D2 (acceptor) conjugated antibodies (as provided by the Cisbio kit #64AERPEG/H) diluted 1:100 in Detection Buffer (as provided by the Cisbio kit #64AERPEG/H). Plates were then sealed and incubated at rt in the dark. After an overnight incubation, the TR-FRET signal was detected on a suitable reader (Envision, PerkinElmer).
The lower the TR-FRET signal the higher the higher the SHP2 inhibition in cells.
The activity of each compound dilution was calculated as percentage between vehicle DMSO treated cells and no cells, 0% inhibition and 100% inhibition respectively. The percentage activity is fitted against the compound dilutions with a four-parameter logistic regression. The inflection point (i.e. the concentration at which half-maximal inhibition is achieved) is the IC50.
Legend: “+” indicates IC50 equal or higher than 0.5 μM; “++” indicates IC50 less than 0.5 μM and higher or equal to 0.1 μM; “+++” indicates IC50 less than 0.1 μM.

The target of experiment [2] is T1, SHP-2 enzyme (Met1-Leu525), SHP2wt (Homo sapiens, UniProt Q06124).
T1 construct: synthetized by Origene, Met1-Leu525, cat #TP750155; purchased Origene TP750155
T1 sequence (Q06124 1-525): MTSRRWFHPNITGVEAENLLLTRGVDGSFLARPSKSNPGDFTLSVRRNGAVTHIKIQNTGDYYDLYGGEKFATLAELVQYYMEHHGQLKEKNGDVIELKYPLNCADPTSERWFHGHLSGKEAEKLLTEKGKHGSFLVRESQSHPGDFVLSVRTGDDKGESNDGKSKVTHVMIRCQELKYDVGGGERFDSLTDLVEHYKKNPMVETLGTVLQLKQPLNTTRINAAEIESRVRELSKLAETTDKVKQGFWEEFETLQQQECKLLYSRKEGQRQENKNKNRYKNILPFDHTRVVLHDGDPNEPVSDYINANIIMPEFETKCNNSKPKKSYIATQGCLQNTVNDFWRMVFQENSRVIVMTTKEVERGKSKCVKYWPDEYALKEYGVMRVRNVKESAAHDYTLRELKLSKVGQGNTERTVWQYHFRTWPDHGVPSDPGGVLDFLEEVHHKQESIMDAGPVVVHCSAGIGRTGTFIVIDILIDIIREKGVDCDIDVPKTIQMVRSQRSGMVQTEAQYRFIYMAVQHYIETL
The experiment in a line: SHP2 inhibition enzymatic assay. It is filed as biochemical. Conditions: 0.5 nM SHP-2 activated by 500 nM IRS1 peptide, 75 μM DiFMUP substrate. Here is the method:
The assay was performed as described in YP Chen et al, Nature (535) 2016. Assay volume of 20 μL/well was assembled in 384 well black polystyrene low-binding microplates (Greiner), using the following buffer: 60 mM HEPES pH 7.2, 75 mM NaCl, 75 mM KCl, 1 mM EDTA pH 8, 0.05% tween-20, 5 mM DTT. The SHP-2 enzyme (synthetized by Origene, Met1-Leu525, cat #TP750155) was used at a final concentration of 0.5 nM. The enzyme was activated by 500 nM IRS1 peptide (sequence: H2N-LN(pY)IDLDLV(dPEG8)LST(pY)ASINFQK-amide; Wang et al., iScience 25,104009, Apr. 15, 2022, https://doi.org/10.1016/j.isci.2022.104009) and incubated with 75 μM DiFMUP (Sigma) as substrate.
Briefly, DMSO serially diluted testing compounds were transferred to the bottom of the assay plate. SHP2 was then added together with the IRS1 peptide 30 min post incubation, the DiFMUP substrate was added to the reaction and incubated 30 min at rt. Finally 5 μL of 160 μM bpV (potassium bisperoxo[1,10-phenanthroline]oxovanadate [V], Sigma) were added to stop and quench the reaction. The fluorescence was detected by a microplate reader (Envision, PerkinElmer) according to the DiFMUP excitation and emission wavelength. The lower the fluorescence the higher the SHP2 inhibition.
The activity of each compound dilution was calculated as percentage of inhibition between vehicle (DMSO, 0% inhibition) and no enzyme (100% inhibition). The percentage inhibition is fitted against the compound dilutions with a four-parameter logistic regression. The inflection point (i.e. the concentration at which half-maximal inhibition is achieved) is the IC50.
Legend: A indicates IC50 less or equal to 0.05 μM; B indicates IC50 greater than 0.05 μM and lower or equal to 0.3 μM.

On to `N[C@@H]1c2ccnn2CC12CCN(c1cnc(Sc3ccc(Cl)cc3Cl)cn1)CC2` [Example 22, (S)-1-(5-((2,4-dichlorophenyl)thio)pyrazin-2-yl)-4′H,6′H-spiro[piperidine-4,5′-pyrrolo[1,2-b]pyrazol]-4′-amine], for which the IC50 is below 100 nM in experiment [1] and at most 50 nM in experiment [2].
In the case of `N[C@@H]1c2ccnn2CC12CCN(c1cnc(Sc3cccc(F)c3)cn1)CC2` [Example 51, (S)-1-(5-((3-fluorophenyl)thio)pyrazin-2-yl)-4′H,6′H-spiro[piperidine-4,5′-pyrrolo[1,2-b]pyrazol]-4′-amine], the results for the IC50 in experiment [1] and in experiment [2] were 100 to 500 nM and at most 50 nM, respectively.
Consider `N[C@@H]1c2ccnn2CC12CCN(c1cnc(Sc3ccccc3C(F)F)cn1)CC2` [Example 72, (S)-1-(5-((2-(difluoromethyl)phenyl)thio)pyrazin-2-yl)-4′H,6′H-spiro[piperidine-4,5′-pyrrolo[1,2-b]pyrazol]-4′-amine], for which the IC50 in experiment [1] is below 100 nM; in experiment [2], at most 50 nM.
On the same counts, the results for `N[C@@H]1c2ccnn2CC12CCN(c1cnc(Sc3ccc(F)cc3)cn1)CC2` [Example 13, (S)-1-(5-((4-fluorophenyl)thio)pyrazin-2-yl)-4′H,6′H-spiro[piperidine-4,5′-pyrrolo[1,2-b]pyrazol]-4′-amine] are below 100 nM and at most 50 nM.
As to `N#Cc1ccc(Sc2cnc(N3CCC4(CC3)Cn3nccc3[C@H]4N)cn2)c2cccnc12` [Example 66, (S)-5-((5-(4′-amino-4′H,6′H-spiro[piperidine-4,5′-pyrrolo[1,2-b]pyrazol]-1-yl)pyrazin-2-yl)thio)quinoline-8-carbonitrile], the half-inhibitory concentration (IC50) in experiment [1] was below 100 nM; in experiment [2] it was at most 50 nM.
For `N[C@@H]1c2ccnn2CC12CCN(c1cnc(Sc3ccc(OC(F)F)c4ncccc34)cn1)CC2` [Example 73, (S)-1-(5-((8-(difluoromethoxy)quinolin-5-yl)thio)pyrazin-2-yl)-4′H,6′H-spiro[piperidine-4,5′-pyrrolo[1,2-b]pyrazol]-4′-amine], the half-inhibitory concentration (IC50) in experiment [1] was below 100 nM; in experiment [2] it was at most 50 nM.
The corresponding values for `N[C@@H]1c2ccnn2CC12CCN(c1cnc(Sc3cccc(F)c3C(F)F)cn1)CC2` [Example 71, (S)-1-(5-((2-(difluoromethyl)-3-fluorophenyl)thio)pyrazin-2-yl)-4′H,6′H-spiro[piperidine-4,5′-pyrrolo[1,2-b]pyrazol]-4′-amine] are below 100 nM and at most 50 nM.
In the case of `N[C@@H]1c2ccnn2CC12CCN(c1cnc(Sc3cccc4c3CCC4)cn1)CC2` [Example 46, (S)-1-(5-((2,3-dihydro-1H-inden-4-yl)thio)pyrazin-2-yl)-4′H,6′H-spiro[piperidine-4,5′-pyrrolo[1,2-b]pyrazol]-4′-amine], the IC50 in experiment [1] is below 100 nM; in experiment [2] it was at most 50 nM.
On the same counts, the results for `N#Cc1cccc(Sc2cnc(N3CCC4(CC3)Cn3nccc3[C@H]4N)cn2)c1C(F)(F)F` [Example 43, (S)-3-((5-(4′-amino-4′H,6′H-spiro[piperidine-4,5′-pyrrolo[1,2-b]pyrazol]-1-yl)pyrazin-2-yl)thio)-2-(trifluoromethyl)benzonitrile] are below 100 nM and at most 50 nM.
The corresponding values for `N[C@@H]1c2ccnn2CC12CCN(c1cnc(Oc3ccc(Cl)cc3F)cn1)CC2` [Example 79, (S)-1-(5-(4-chloro-2-fluorophenoxy)pyrazin-2-yl)-4′H,6′H-spiro[piperidine-4,5′-pyrrolo[1,2-b]pyrazol]-4′-amine] are 100 to 500 nM and at most 50 nM.
The corresponding values for `COc1c(F)ccc(Sc2cnc(N3CCC4(CC3)Cn3nccc3[C@H]4N)cn2)c1F` [Example 55, (S)-1-(5-((2,4-difluoro-3-methoxyphenyl)thio)pyrazin-2-yl)-4′H,6′H-spiro[piperidine-4,5′-pyrrolo[1,2-b]pyrazol]-4′-amine] are below 100 nM and at most 50 nM.
For the molecule `Cn1cc2c(Cl)c(Sc3cnc(N4CCC5(CC4)Cn4nccc4[C@H]5N)cn3)ccc2n1` [Example 84, (S)-1-(5-((4-chloro-2-methyl-2H-indazol-5-yl)thio)pyrazin-2-yl)-4′H,6′H-spiro[piperidine-4,5′-pyrrolo[1,2-b]pyrazol]-4′-amine], the results for the IC50 in experiment [1] and in experiment [2] were below 100 nM and at most 50 nM, respectively.
On to `N[C@@H]1c2ccnn2CC12CCN(c1cnc(Sc3cccc(Cl)c3C(F)(F)F)cn1)CC2` [Example 56, (S)-1-(5-((3-chloro-2-(trifluoromethyl)phenyl)thio)pyrazin-2-yl)-4′H,6′H-spiro[piperidine-4,5′-pyrrolo[1,2-b]pyrazol]-4′-amine], for which the IC50 in experiment [1] is below 100 nM; in experiment [2] it was at most 50 nM.
As for `N[C@@H]1c2ccnn2CC12CCN(c1cnc(Sc3ccccc3Cl)cn1)CC2` [Example 63, (S)-1-(5-((2-chlorophenyl)thio)pyrazin-2-yl)-4′H,6′H-spiro[piperidine-4,5′-pyrrolo[1,2-b]pyrazol]-4′-amine], the IC50 in experiment [1] was below 100 nM; in experiment [2] it was at most 50 nM.
On the same counts, the results for `Cc1cccc(Sc2cnc(N3CCC4(CC3)Cn3nccc3[C@H]4N)cn2)c1Cl` [Example 35, (S)-1-(5-((2-chloro-3-methylphenyl)thio)pyrazin-2-yl)-4′H,6′H-spiro[piperidine-4,5′-pyrrolo[1,2-b]pyrazol]-4′-amine] are below 100 nM and at most 50 nM.
Regarding `N[C@@H]1c2ccnn2CC12CCN(c1cnc(Sc3cccc4c3CCO4)cn1)CC2` [Example 38, (S)-1-(5-((2,3-dihydrobenzofuran-4-yl)thio)pyrazin-2-yl)-4′H,6′H-spiro[piperidine-4,5′-pyrrolo[1,2-b]pyrazol]-4′-amine], the IC50 in experiment [1] was 100 to 500 nM; in experiment [2] it was at most 50 nM.
On the same counts, the results for `N[C@@H]1c2ccnn2CC12CCN(c1cnc(Sc3ccc4c(c3)CCO4)cn1)CC2` [Example 42, (S)-1-(5-((2,3-dihydrobenzofuran-5-yl)thio)pyrazin-2-yl)-4′H,6′H-spiro[piperidine-4,5′-pyrrolo[1,2-b]pyrazol]-4′-amine] are below 100 nM and at most 50 nM.
On the same counts, the results for `N[C@@H]1c2ccnn2CC12CCN(c1cnc(Sc3cccc4c3COC4)cn1)CC2` [Example 52, (S)-1-(5-((1,3-dihydroisobenzofuran-4-yl)thio)pyrazin-2-yl)-4′H,6′H-spiro[piperidine-4,5′-pyrrolo[1,2-b]pyrazol]-4′-amine] are below 100 nM and at most 50 nM.
With `N#Cc1ccc(Sc2cnc(N3CCC4(CC3)Cn3nccc3[C@H]4N)cn2)c(F)c1` [Example 76, (S)-4-((5-(4′-amino-4′H,6′H-spiro[piperidine-4,5′-pyrrolo[1,2-b]pyrazol]-1-yl)pyrazin-2-yl)thio)-3-fluorobenzonitrile], the values for the IC50 in experiment [1] and in experiment [2] were below 100 nM and at most 50 nM, respectively.
